From patent US20260048060A1, “POLYCYCLIC THYROID HORMONE b RECEPTOR AGONIST AND USE THEREOF” (CASCADE PHARMACEUTICALS, INC., priority 2022, published 2026) come the findings set out here.

The assay concerns the target T1, THRβ (Homo sapiens, UniProt P10828).
T1 construct: expressed in transfected cells; host or cells: HEK293T
T1 sequence (P10828 217-461): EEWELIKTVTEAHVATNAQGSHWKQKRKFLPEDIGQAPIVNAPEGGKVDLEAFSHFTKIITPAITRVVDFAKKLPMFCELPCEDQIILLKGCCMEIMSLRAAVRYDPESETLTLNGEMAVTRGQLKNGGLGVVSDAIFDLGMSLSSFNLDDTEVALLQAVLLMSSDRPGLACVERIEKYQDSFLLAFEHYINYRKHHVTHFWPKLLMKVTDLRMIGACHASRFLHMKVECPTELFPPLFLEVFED
As to the kind of experiment: Reporter gene (GAL4-THRβ-LBD / Dual-Glo luciferase) agonist activity assay in HEK293T cells. Format: cell-based. To be noted: ratio of reporter gene EC50 values THRα/THRβ. The text has this:
Experimental Example 1: Detection of THRα and THRβ Agonist Activities of Compounds Based on Reporter Gene Activity Assay Method
1.1 Construction and Preparation of Plasmids pGAL4-THR-LBD and pG5-Luc
The pGAL4-THRα-LBD and pGAL4-THRβ-LBD plasmids used in the reporter gene assay system were constructed by a conventional molecular cloning method comprising the following main steps: the cDNA sequences of THRα (NM_003250) and THRβ (NM_000461) corresponding to the amino acid sequences of THRα (163-407AA) and THRβ (217-461AA) were inserted into the BamHI and NotI enzyme digestion sites of the pGAL4 vector by the PCR technique respectively to obtain the pGAL4-THRα-LBD and pGAL4-THRβ-LBD plasmids; the pG5-Luc (#E249A) and pRL-TK (#E2241) plasmids were purchased from Promega; the plasmids were transfected into the E. coli DH5α by the CaCl2 method, and after further culture and amplification, the plasmids were purified by Plasmid Extraction Kits (TIANGEN, #D107) to obtain the corresponding plasmid DNAs.
1.2 Co-Transfection of Plasmids into HEK293T Cells and Treatment with Compounds
The HEK293T cells were inoculated into a 96-well plate at a density of 1×10^4/well the day before plasmid transfection. Cell transfection was conducted according to the instructions of the transfection reagent FuGENE® HD (Promega, #E2311). The main steps were as follows: taking one well as an example here, the plasmids pGAL4-THRα-LBD or pGAL4-THRβ-LBD, pG5-Luc, and pRL-TK were added in the proportions of 20 ng, 50 ng, and 5 ng to 10 μL of Opti-MEM™ I medium (Gibco, #11058021) and mixed well; subsequently, 0.25 uL of FuGENE® HD was added, mixed well, and then left at room temperature for 5 min; afterwards, 10 μL of the mixture was added to the cell wells containing 100 μL of culture medium. After cell co-transfection for 6 h, the compound was diluted in a 3-fold gradient with dimethyl sulfoxide at the highest concentration of 1 uM. The compound was added to the cell culture medium at a total of 10 concentrations for treatment for 24 h. There were a total of two duplicate wells for each concentration. Triiodothyronine (T3) was used as the positive control.
1.3 Dual-Glo Luciferase Assay
After the cells were treated with the compound for 24 h, the cells were assayed according to the instructions of Dual-Glo® Luciferase Assay System (Promega, #E2940). The main steps were as follows: 50 μL of culture medium was aspirated from each well and discarded, and then 50 μL of Dual-Glo® Luciferase reagent was added and oscillated at room temperature for 10 min; 80 μL of lysis reaction solution was measured into a white opaque optiPlate-96-well plate, and the luminescence signal value (Firefly-Luc) of the Firefly luciferase was detected using an MD i3x multi-mode microplate reader; 40 μL of Dual-Glo® Stop & Glo® reagent was then added, and oscillated at room temperature for 10 min; the luminescence signal value (Renilla-Luc) of the Renilla luciferase was then detected using an MD i3x multi-mode microplate reader. The Firefly-Luc/Renilla-Luc ratio was used as the activation activity of the compound against THR, and the ratio in the solvent DMSO group was used for normalization; the dose-response curve was fitted with four parameters using the GraphPad Prism6.0 software, and the EC50 value was calculated.
(In general: A reporter such as luciferase makes a cellular process visible.)
As for `NC(=O)c1cc(Cl)ccc1OCc1c(Cl)cc(-n2ncc(=O)[nH]c2=O)cc1Cl` [Compound 32], the “Selectivity (THRα/THRβ)” value is on record as “† (†: 5 ≥ THRα/β;)”.
Under `NC(=O)c1cc(F)ccc1OCc1c(Cl)cc(-n2ncc(=O)[nH]c2=O)cc1Cl` [Compound 37] stands “† (†: 5 ≥ THRα/β;)”; under `CNC(=O)c1ccccc1OCc1c(Br)cc(-n2ncc(=O)[nH]c2=O)cc1Br` [Compound 39], “† (†: 5 ≥ THRα/β;)”; under `CCNC(=O)c1ccccc1OCc1c(Cl)cc(-n2ncc(=O)[nH]c2=O)cc1Cl` [Compound 43], “† (†: 5 ≥ THRα/β;)”.
As to `CNC(=O)c1cscc1OCc1c(Cl)cc(-n2ncc(=O)[nH]c2=O)cc1Cl` [Compound 46], the “Selectivity (THRα/THRβ)” value is recorded as “† (†: 5 ≥ THRα/β;)”.
The entry for `CNC(=O)c1sccc1OCc1c(Cl)cc(-n2ncc(=O)[nH]c2=O)cc1Cl` [Compound 47] is “† (†: 5 ≥ THRα/β;)”.
For the compound `CNC(=O)c1ccccc1OCc1c(Cl)cc(-n2nc(C)c(=O)[nH]c2=O)cc1Cl` [Compound 51], the “Selectivity (THRα/THRβ)” value is given as “† (†: 5 ≥ THRα/β;)”.
Regarding `CNC(=O)c1ccccc1OCc1c(Cl)cc(-n2nc(C(F)(F)F)c(=O)[nH]c2=O)cc1Cl` [Compound 52], the “Selectivity (THRα/THRβ)” value is “† (†: 5 ≥ THRα/β;)”.
Consider `CNC(=O)c1ccccc1OCc1c(Br)cc(-n2nc(C(F)F)c(=O)[nH]c2=O)cc1Br` [Compound 56], for which the “Selectivity (THRα/THRβ)” value is recorded as “†† (††: 10 ≥ THRα/β > 5;)”.
With `NC(=O)c1ccccc1OCc1c(Br)cc(-n2nc(C(F)F)c(=O)[nH]c2=O)cc1Br` [Compound 57], the “Selectivity (THRα/THRβ)” value is listed as “† (†: 5 ≥ THRα/β;)”.
With `CNC(=O)c1ccccc1OCc1c(Cl)cc(-c2nn(C)c(=O)[nH]c2=O)cc1Cl` [Compound 59], the “Selectivity (THRα/THRβ)” value is “† (†: 5 ≥ THRα/β;)”.
For the compound `CNC(=O)c1ccccc1OCc1c(Cl)cc(-c2nn(C(F)F)c(=O)[nH]c2=O)cc1Cl` [Compound 60], the “Selectivity (THRα/THRβ)” value is “† (†: 5 ≥ THRα/β;)”.
On to `CNC(=O)c1ccccc1OCc1c(C)cc(-n2ncc(=O)[nH]c2=O)cc1Cl` [Compound 61], for which the “Selectivity (THRα/THRβ)” value is on record as “† (†: 5 ≥ THRα/β;)”.
As for `CNC(=O)c1cscc1OCc1c(Cl)cc(-n2nc(C(F)F)c(=O)[nH]c2=O)cc1Cl` [Compound 62], the “Selectivity (THRα/THRβ)” value is reported as “†† (††: 10 ≥ THRα/β > 5;)”.
With `CNC(=O)c1sccc1OCc1c(Cl)cc(-n2nc(C(F)F)c(=O)[nH]c2=O)cc1Cl` [Compound 63], the “Selectivity (THRα/THRβ)” value is reported as “† (†: 5 ≥ THRα/β;)”.
On to `NC(=O)c1cc(Br)ccc1OCc1c(Cl)cc(-n2ncc(=O)[nH]c2=O)cc1Cl` [Compound 64], for which the “Selectivity (THRα/THRβ)” value was “† (†: 5 ≥ THRα/β;)”.
For `Cc1ccc(OCc2c(Cl)cc(-n3ncc(=O)[nH]c3=O)cc2Cl)c(C(N)=O)c1` [Compound 68], the “Selectivity (THRα/THRβ)” value is “† (†: 5 ≥ THRα/β;)”.
With `NC(=O)c1cc(-n2cccc2)ccc1OCc1c(Cl)cc(-n2ncc(=O)[nH]c2=O)cc1Cl` [Compound 70], the “Selectivity (THRα/THRβ)” value is “†† (††: 10 ≥ THRα/β > 5;)”.
Under `CNC(=O)c1ccc(OCc2c(Cl)cc(-n3ncc(=O)[nH]c3=O)cc2Cl)cc1` [Compound 76] stands “† (†: 5 ≥ THRα/β;)”; under `NC(=O)c1cc(C2CC2)ccc1OCc1c(Cl)cc(-n2ncc(=O)[nH]c2=O)cc1Cl` [Compound 82], “†† (††: 10 ≥ THRα/β > 5;)”; under `Cc1ccc(OCc2c(Br)cc(-n3ncc(=O)[nH]c3=O)cc2Br)c(C(N)=O)c1` [Compound 83], “†††† (††††: 100 ≥ THRα/β > 20)”.
For `CNC(=O)c1cc(C)ccc1OCc1c(Cl)cc(-n2ncc(=O)[nH]c2=O)cc1Cl` [Compound 84], the “Selectivity (THRα/THRβ)” value is “† (†: 5 ≥ THRα/β;)”.
Consider `CNC(=O)c1cc(C)ccc1OCc1c(Br)cc(-n2ncc(=O)[nH]c2=O)cc1Br` [Compound 85], for which the “Selectivity (THRα/THRβ)” value is “†††† (††††: 100 ≥ THRα/β > 20)”.
As to `Cc1ccc(OCc2c(Cl)cc(-n3nc(C(F)F)c(=O)[nH]c3=O)cc2Cl)c(C(N)=O)c1` [Compound 86], the “Selectivity (THRα/THRβ)” value was “†† (††: 10 ≥ THRα/β > 5;)”.
Turning to `Cc1ccc(OCc2c(Br)cc(-n3nc(C(F)F)c(=O)[nH]c3=O)cc2Br)c(C(N)=O)c1` [Compound 87], the “Selectivity (THRα/THRβ)” value is listed as “† (†: 5 ≥ THRα/β;)”.
On to `CNC(=O)c1cc(C)ccc1OCc1c(Cl)cc(-n2nc(C(F)F)c(=O)[nH]c2=O)cc1Cl` [Compound 88], for which the “Selectivity (THRα/THRβ)” value is recorded as “† (†: 5 ≥ THRα/β;)”.
Regarding `CNC(=O)c1cc(C)ccc1OCc1c(Br)cc(-n2nc(C(F)F)c(=O)[nH]c2=O)cc1Br` [Compound 89], the “Selectivity (THRα/THRβ)” value was “† (†: 5 ≥ THRα/β;)”.
With `CNC(=O)c1sccc1OCc1c(Br)cc(-n2nc(C(F)F)c(=O)[nH]c2=O)cc1Br` [Compound 90], the “Selectivity (THRα/THRβ)” value was “††† (†††: 20 ≥ THRα/β > 10;)”.
Under `CNC(=O)c1cscc1OCc1c(Br)cc(-n2nc(C(F)F)c(=O)[nH]c2=O)cc1Br` [Compound 91] stands “††† (†††: 20 ≥ THRα/β > 10;)”; under `CNC(=O)c1ccccc1OCc1c(Cl)cc(-n2nc(CF)c(=O)[nH]c2=O)cc1Cl` [Compound 93], “† (†: 5 ≥ THRα/β;)”.
As for `NC(=O)c1cc(C2=CCCCC2)ccc1OCc1c(Cl)cc(-n2ncc(=O)[nH]c2=O)cc1Cl` [Compound 99], the “Selectivity (THRα/THRβ)” value was “†††† (††††: 100 ≥ THRα/β > 20)”.
Under `NC(=O)c1cc(C2CCCCC2)ccc1OCc1c(Cl)cc(-n2ncc(=O)[nH]c2=O)cc1Cl` [Compound 100] stands “†††† (††††: 100 ≥ THRα/β > 20)”; under `NC(=O)c1cc(C2=CCCC2)ccc1OCc1c(Cl)cc(-n2ncc(=O)[nH]c2=O)cc1Cl` [Compound 101], “† (†: 5 ≥ THRα/β;)”.
On to `NC(=O)c1cc(C2CCCC2)ccc1OCc1c(Cl)cc(-n2ncc(=O)[nH]c2=O)cc1Cl` [Compound 102], for which the “Selectivity (THRα/THRβ)” value was “†† (††: 10 ≥ THRα/β > 5;)”.
For the compound `[2H]C([2H])(Oc1ccccc1C(=O)NC)c1c(Cl)cc(-n2nc(C(F)F)c(=O)[nH]c2=O)cc1Cl` [Compound 103], the “Selectivity (THRα/THRβ)” value was “† (†: 5 ≥ THRα/β;)”.
In the case of `[2H]C([2H])([2H])NC(=O)c1ccccc1OCc1c(Cl)cc(-n2nc(C(F)F)c(=O)[nH]c2=O)cc1Cl` [Compound 104], the “Selectivity (THRα/THRβ)” value is “†† (††: 10 ≥ THRα/β > 5;)”.
In the case of `CNC(=O)c1ccccc1OCc1c(Cl)cc(-n2nc(C(F)F)c(=O)[nH]c2=O)cc1Br` [Compound 105], the “Selectivity (THRα/THRβ)” value is given as “† (†: 5 ≥ THRα/β;)”.
